In ChEMBL document CHEMBL6177980 (J Med Chem, 2025):

Tests used:
[1] = Stability of compound at pH 1.5 assessed as change in purity at 1 mg/ml incubated for 4 hrs by HPLC analysis; format: physicochemical; details: buffer, pH 1.5, 4 h
[2] = Stability of compound at pH 1.5 assessed as change in purity at 1 mg/ml incubated for 12 hrs by HPLC analysis; format: physicochemical; details: buffer, pH 1.5, 12 h
[3] = Stability of compound at pH 1.5 assessed as change in purity at 1 mg/ml incubated for 24 hrs by HPLC analysis; format: physicochemical; details: buffer, pH 1.5, 24 h
[4] = Stability of compound at pH 4.0 assessed as change in purity at 1 mg/ml incubated for 4 hrs by HPLC analysis; format: physicochemical; details: buffer, pH 4, 4 h
[5] = Stability of compound at pH 4.0 assessed as change in purity at 1 mg/ml incubated for 12 hrs by HPLC analysis; format: physicochemical; details: buffer, pH 4, 12 h
[6] = Stability of compound at pH 4.0 assessed as change in purity at 1 mg/ml incubated for 24 hrs by HPLC analysis; format: physicochemical; details: buffer, pH 4, 24 h
[7] = Stability of compound at pH 6.8 assessed as change in purity at 1 mg/ml incubated for 4 hrs by HPLC analysis; format: physicochemical; details: buffer, pH 6.8, 4 h
[8] = Stability of compound at pH 6.8 assessed as change in purity at 1 mg/ml incubated for 12 hrs by HPLC analysis; format: physicochemical; details: buffer, pH 6.8, 12 h
[9] = Stability of compound at pH 6.8 assessed as change in purity at 1 mg/ml incubated for 24 hrs by HPLC analysis; format: physicochemical; details: buffer, pH 6.8, 24 h
[10] = Cmax in fasted Sprague-Dawley rat at 17.5 mg/kg, po by LC-MS/MS analysis; format: ADME, organism-based; details: in vivo
[11] = AUC (0 to t) in fasted Sprague-Dawley rat at 17.5 mg/kg, po by LC-MS/MS analysis; format: ADME, organism-based; details: in vivo
[12] = Cmax in fasted Sprague-Dawley rat at 16.5 mg/kg, po by LC-MS/MS analysis; format: ADME, organism-based; details: in vivo
[13] = AUC (0 to t) in fasted Sprague-Dawley rat at 16.5 mg/kg, po by LC-MS/MS analysis; format: ADME, organism-based; details: in vivo
[14] = Oral bioavailability in fasted Cynomolgus monkey administered orally by LC-MS/MS analysis; format: ADME, organism-based, Macaca fascicularis; details: in vivo
[15] = Half life in fasted Cynomolgus monkey administered orally by LC-MS/MS analysis; format: ADME, Macaca fascicularis; details: in vivo, route po
[16] = Cmax in fasted Sprague-Dawley rat at 24 mg/kg, po by LC-MS/MS analysis; format: ADME, organism-based; details: in vivo
[17] = AUC (0 to t) in fasted Sprague-Dawley rat at 24 mg/kg, po by LC-MS/MS analysis; format: ADME, organism-based; details: in vivo
[18] = Cmax in fasted Sprague-Dawley rat at 19 mg/kg, po by LC-MS/MS analysis; format: ADME, organism-based; details: in vivo
[19] = AUC (0 to t) in fasted Sprague-Dawley rat at 19 mg/kg, po by LC-MS/MS analysis; format: ADME, organism-based; details: in vivo
[20] = Cmax in fasted Sprague-Dawley rat at 25 mg/kg, po by LC-MS/MS analysis; format: ADME, organism-based; details: in vivo
[21] = AUC (0 to t) in fasted Sprague-Dawley rat at 25 mg/kg, po by LC-MS/MS analysis; format: ADME, organism-based; details: in vivo

In the case of `CCC(=O)OC[C@@]1(F)O[C@@H](n2ccc(=O)n(COC(=O)c3cccnc3)c2=O)[C@H](OC(=O)CC)[C@@H]1OC(=O)CC`, the Activity [1] was -1.9%, the Activity [2] was -5.3% and the Activity [3] was -9.8%. The Activity [4] was 0%, the Activity [5] was -0.1% and the Activity [6] was -0.1%. It also gave an Activity [7] of -1.9%, an Activity [8] of -4.9% and an Activity [9] of -9.7%.
`CC(=O)OCCOC(=O)n1c(=O)ccn([C@@H]2O[C@](F)(COC(=O)C(C)C)[C@@H](O)[C@H]2O)c1=O` showed a Cmax [10] of 915 ng/mL and an AUC(0-t) [11] of 4300 ng·h/mL.
With `CC(C)C(=O)OCn1c(=O)ccn([C@@H]2O[C@](F)(COC(=O)C(C)C)[C@@H](O)[C@H]2O)c1=O` the Cmax [12] was 3140 ng/mL, the AUC(0-t) [13] was 20100 ng·h/mL and the Activity [1] was -2%. For the same compound, the Activity [2] was -6%, the Activity [3] was -11.2% and the Activity [4] was -0.9%. It also gave an Activity [5] of -1.8%, an Activity [6] of -3% and an Activity [7] of -1%. It also gave an Activity [8] of -2.4%, an Activity [9] of -4.1% and a bioavailability [14] of 66.2%. It also gave a half-life [15] of 6.84 h.
For `CC(C)C(=O)OC[C@@]1(F)O[C@@H](n2ccc(=O)n(COC(=O)[C@@H](N)C(C)C)c2=O)[C@H](OC(=O)C(C)C)[C@@H]1OC(=O)C(C)C.Cl`, the Cmax [16] was 1640 ng/mL, the AUC(0-t) [17] was 11700 ng·h/mL and the Activity [1] was -0.9%. For the same compound, the Activity [2] was -2.7%, the Activity [3] was -5.2% and the Activity [4] was -0.6%. The Activity [5] was -1.2%, the Activity [6] was -2.1% and the Activity [7] was -90.7%. The Activity [8] was -98.1% and the Activity [9] was -98.1%.
For `CC(C)C(=O)O[C@H]1[C@H](n2ccc(=O)n(COC(=O)c3cccnc3)c2=O)O[C@](F)(COC(=O)c2cccnc2)[C@H]1OC(=O)C(C)C`, the Activity [1] was -2.8%, the Activity [2] was -4.8% and the Activity [3] was -7.8%. For the same compound, the Activity [4] was -0.6%, the Activity [5] was -0.8% and the Activity [6] was -0.8%. It also gave an Activity [7] of -3.4%, an Activity [8] of -8.1% and an Activity [9] of -15.9%. The bioavailability [14] was 102%.
`CC(C)C(=O)OC[C@@]1(F)O[C@@H](n2ccc(=O)n(COC(=O)c3cccnc3)c2=O)[C@@H]2OC(=O)O[C@@H]21` gave a Cmax [18] of 1200 ng/mL, an AUC(0-t) [19] of 9450 ng·h/mL and an Activity [1] of -2.1%. For the same compound, the Activity [2] was -5.5%, the Activity [3] was -9.5% and the Activity [4] was -1.9%. For the same compound, the Activity [5] was -5.4%, the Activity [6] was -10.5% and the Activity [7] was -45%. For the same compound, the Activity [8] was -76% and the Activity [9] was -88.3%.
Work on `CC(C)C(=O)OC[C@@]1(F)O[C@@H](n2ccc(=O)n(COC(=O)[C@@H]3CCCN3)c2=O)[C@H](OC(=O)C(C)C)[C@@H]1OC(=O)C(C)C.Cl` yielded a Cmax [16] of 1370 ng/mL, an AUC(0-t) [17] of 7590 ng·h/mL and an Activity [1] of -1.3%. For the same compound, the Activity [2] was -4.1%, the Activity [3] was -7.9% and the Activity [4] was -35.2%. It also gave an Activity [5] of -62.4%, an Activity [6] of -84.8% and an Activity [7] of -27.6%. For the same compound, the Activity [8] was -30.5% and the Activity [9] was -30.6%.
For `CC(C)C(=O)OC[C@@]1(F)O[C@@H](n2ccc(=O)n(COC(=O)[C@@H]3CCCN3C)c2=O)[C@H](OC(=O)C(C)C)[C@@H]1OC(=O)C(C)C.Cl`, the Cmax [20] was 2150 ng/mL, the AUC(0-t) [21] was 14200 ng·h/mL and the Activity [1] was -1.5%. The Activity [2] was -3.6%, the Activity [3] was -7.6% and the Activity [4] was -10.9%. The Activity [5] was -29.8%, the Activity [6] was -52.7% and the Activity [7] was -62.9%. It also gave an Activity [8] of -95%, an Activity [9] of -95% and a bioavailability [14] of 91%.
